Like-named read-outs stand apart in the source and are kept apart here. Marks after values point to notes of the source that are not given here.
Columns and labels:
hARH1 [1] = molecular target: T1, hARH1 (Homo sapiens, UniProt P54922); experiment: Enzyme kinetics and inhibition assay with fluorogenic substrate TFMU-ADPr; assay type: biochemical; conditions: for IC50: 20 μM TFMU-ADPr as substrate, triplicate
T1 construct: made in house; host or cells: E. coli Rosetta (DE3)
Experimental: (§1) Reactions were performed as described in ([Drown et al., 2018]). Briefly, reactions were carried out in 384-well plates using 50 mM Na2HPO4 (pH 7.4), 10 mM MgCl2, 5 mM DTT and indicated amounts of TFMU-ADPr as substrate. After shaking for 5 s, fluorescence was recorded at 5 s intervals for 15 min on a Molecular Devices SpectraMax M3 microplate reader (reader settings: λEx 385 nm, λEm 502 nm, λcutoff 495 nm, 6 reads/well, low gain). Initial reaction rates were determined by fitting the linear portions of reaction progress curves. Initial rates were plotted against substrate concentration and fit to the Michaelis-Menton equation using a non-linear curve-fitting algorithm in GraphPad Prism 6.
(§2) For inhibitor studies enzymes and inhibitor were pre-incubated for 5 min at RT before addition of substrate. Percent inhibition was calculated with the no enzyme and no inhibitor reactions as positive and negative controls, respectively. Dose-response curves were fit using GraphPad Prism 6.

hARH1 [2] = molecular target: T1, hARH1; experiment: Removal of Arg-ADP-ribosylation from HeLa cell extracts (32P autoradiography); assay type: biochemical; conditions: arginine ADP-ribosylated whole cell lysate as substrate; 1-1,000 μM compound
Experimental: In vitro modification of proteins from HeLa cell extracts by mARTC2.2 recombinant protein was performed, with minor modifications, as described earlier ([Palazzo et al., 2016]). Briefly, cells were grown to confluence on two 10-cm dishes, washed thrice with 50 mM TrisHCl (pH 7.5) and 200 mM NaCl and lysed in 800 μL of 50 mM Tris-HCl pH 7.5, 150 mM NaCl, 0.5% Triton X-100, 0.2 mM DTT and 1 μM olaparib at 4°C supplemented with cOmplete™ EDTA-free protease inhibitor (Roche). The cell extract was clarified by centrifugation. 12 uL of extract per reaction were supplemented with 15 mM MgCl2, 1 μM mARTC2.2 and 1 μCi ^32P-NAD^+ and incubated for 15 min at 30°C. Lysates were further incubated in presence of hydrolases for 45 min at 30°C. Reactions were stopped by addition of LDS sample buffer (Life Technologies) and incubation at 95°C for 3 min. Samples were then analysed by SDS-PAGE and autoradiography. For inhibitor study the hARH1 was pre-incubated with indicated amount of inhibitor for 5 min at RT.

LchARH3 [3] = molecular target: T2, LchARH3 (Latimeria chalumnae, UniProt H3BCW1); assay type: biochemical; conditions: for inhibitory potential against ARH3 (in words): serine MARylated histone H3 peptide as substrate, 1-1,000 μM compound; for support of hydrolysis of Ser-ADPr and PAR by metal (in words): MgII-stripped enzyme, 100 μM metal salt
T2 construct: LchARH3 (GenBank: XP_005988572; aa residues 10-362); made in house; host or cells: E. coli Rosetta (DE3)
T2 sequence (H3BCW1 10-356 limits assumed): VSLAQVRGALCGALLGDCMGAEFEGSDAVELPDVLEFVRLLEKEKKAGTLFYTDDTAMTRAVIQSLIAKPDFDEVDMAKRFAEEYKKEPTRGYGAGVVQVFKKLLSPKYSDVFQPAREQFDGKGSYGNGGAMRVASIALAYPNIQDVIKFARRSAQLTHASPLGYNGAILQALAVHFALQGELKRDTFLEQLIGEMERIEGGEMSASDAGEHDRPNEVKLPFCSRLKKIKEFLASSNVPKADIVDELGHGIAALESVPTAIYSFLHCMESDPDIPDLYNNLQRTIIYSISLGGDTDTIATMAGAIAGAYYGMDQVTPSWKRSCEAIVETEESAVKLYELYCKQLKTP
Experimental: (§3) ARH3 activity assays were performed essentially as described ([Fontana et al., 2017]). Briefly, H3 peptide (aa 1-20, biotinylated) was modified by incubation with 0.5 μM PARP1, 1 μM HPF1 and activated DNA (Trevigen) in assay buffer (50 mM TrisHCl [pH 8], 200 mM NaCl, 2 mM MgCl2, 1 mM DTT, 10 μM NAD^+ and 1 μCi ^32P-NAD^+). Reactions were incubated for 30 min at 30°C and stopped by addition of 1 μM olaparib. Reaction were further incubated in presence of 1 μM hydrolase for 1 h at 30°C. Reactions were stopped by addition of LDS sample buffer (Life Technologies) and incubation at 95°C for 3 min. Samples were then analysed by SDS-PAGE, immunoblot and autoradiography. For inhibitor study the ARH3 was pre-incubated with indicated amount of inhibitor for 5 min at RT.

hARH3 [4] = molecular target: T3, hARH3 (Homo sapiens, UniProt Q9NX46); experiment: Enzyme kinetics and inhibition assay with fluorogenic substrate TFMU-ADPr; assay type: biochemical; conditions: triplicate; for IC50: 20 μM TFMU-ADPr as substrate
T3 construct: made in house; host or cells: E. coli Rosetta (DE3)
T3 sequence (Q9NX46 1-363): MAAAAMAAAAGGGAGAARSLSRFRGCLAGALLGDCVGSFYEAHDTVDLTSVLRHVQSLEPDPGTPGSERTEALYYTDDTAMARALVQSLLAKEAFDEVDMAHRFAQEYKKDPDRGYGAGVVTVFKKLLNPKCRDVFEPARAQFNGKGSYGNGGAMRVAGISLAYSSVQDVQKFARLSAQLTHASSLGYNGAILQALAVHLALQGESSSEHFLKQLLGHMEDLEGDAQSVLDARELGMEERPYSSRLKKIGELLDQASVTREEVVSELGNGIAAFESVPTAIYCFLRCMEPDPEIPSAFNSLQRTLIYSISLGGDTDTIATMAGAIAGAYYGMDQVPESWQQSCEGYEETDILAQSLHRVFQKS
Experimental: as §1, §2

hARH3 [5] = molecular target: T3, hARH3; experiment: De-modification of Ser-ADP-ribosyl H3 peptide and degradation of PAR (32P autoradiography); assay type: biochemical; conditions: for support of hydrolysis of Ser-ADPr and PAR by metal (in words): MgII-stripped enzyme, 100 μM metal salt
Experimental: as §3

hARH3 [6] = molecular target: T3, hARH3; set-up: method as in Drown et al., 2018; conditions: in situ generation of Arg-ADPr; ref Drown et al., 2018; cited from earlier work
hARH3 [7] = molecular target: T3, hARH3; experiment: Differential scanning fluorimetry (DSF) with metal salts, MgII-depleted enzyme; assay type: binding; conditions: for TM / ΔTM: 100 μM metal salt; for TM: n = 3; for ΔTM: ΔTM = TM (salt) - TM (apo)
LchARH3 [8] = molecular target: T2, LchARH3; experiment: biochemical; assay type: binding; conditions: for TM / ΔTM: 100 μM metal salt; for TM: n = 6; for ΔTM: ΔTM = TM (salt) - TM (apo)
Experimental: LchARH3 WT was purified as described above and dialysed against 50 mM TrisHCl (pH 8), 200 mM NaCl, 20 mM EDTA, 1 mM DTT and 5% (v/v) glycerol. EDTA was removed by dialysing twice against 50 mM TrisHCl (pH 8), 200 mM NaCl, 1 mM DTT and 5% (v/v) glycerol. Each dialysis step was carried out with a minimum 1:1,000 ratio of sample to buffer. Only samples with purity >90% (as assessed by SDS-PAGE) were used for subsequent DSF experiments.
Assays were performed essentially as described earlier ([Vivoli et al., 2014]). Briefly, 10 μM LchARH3 wt EDTA-treated, 10x SYPRO® Orange (ThermoFisher Scientific) and indicated amounts of metal salts in assay buffer (50 mM TrisHCl [pH 8], 200 mM NaCl and 1 mM DTT) were thermal denaturated in MicroAmp® Fast plates (Life Technologies) in a StepOne qPCR instrument (ThermoFisher Scientific). The initial temperature of 24°C was held for 2.5 min, followed by a ramp to 97.5°C at 0.5°C/45 sec and then 2 min pause at 98°C. Curves were fit using GraphPad Prism 6. For analysis recorded data were cropped two data points after recorded fluorescence signal maximum and the resulting curves fitted using the Boltzman equation F=BOTTOM+(TOP−BOTTOM)/1+e^(TM−T/SLOPE)
with TM, melting temperature; T, temperature; SLOPE, steepness of curve. For the inference of the binding constant the determined TM’s were plotted and analysed using a single binding site model: TM=BOTTOM+((TOP−BOTTOM)∗(1−(P−Kd−M+(P+M+Kd)^2∗(4∗P∗M)/2P))) with P, protein concentration; M, metal salt concentration; Kd dissociation constant.

[9] = DSF, 16 metal salt dilutions, single-site ligand-binding model, triplicate ± SD, read-out: Kd
[10] = DSF, rounded, read-out: Kd of magnesium on its own

T1 sequence (P54922 whole entry): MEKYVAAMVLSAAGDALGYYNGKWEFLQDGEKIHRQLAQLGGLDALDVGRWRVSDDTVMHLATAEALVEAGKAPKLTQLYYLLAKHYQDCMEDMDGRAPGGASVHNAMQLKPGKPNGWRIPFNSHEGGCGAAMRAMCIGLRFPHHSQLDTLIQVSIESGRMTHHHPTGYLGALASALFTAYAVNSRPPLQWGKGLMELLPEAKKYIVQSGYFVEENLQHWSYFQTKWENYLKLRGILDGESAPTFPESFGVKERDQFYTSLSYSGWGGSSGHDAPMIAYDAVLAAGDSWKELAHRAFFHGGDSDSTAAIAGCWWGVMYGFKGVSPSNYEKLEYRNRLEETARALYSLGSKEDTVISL

SMILES | TM (hARH3 [7]) [°C] | ΔTM (hARH3 [7]) | TM (LchARH3 [8]) [°C] | ΔTM (LchARH3 [8]) | other results
Nc1ncnc2c1ncn2[C@@H]1O[C@H](CO[P@](=O)(O)O[P@@](=O)(O)OC[C@H]2NC[C@H](O)[C@@H]2O)[C@@H](O)[C@H]1O [ADP-HPD, adenosine diphosphate (hydroxymethyl)pyrrolidinediol] | – | – | – | – | inhibition of hARH1 (in words) (hARH1 [1]; IC50 conditions, 20 μM TFMU-ADPr): no inhibition; inhibitory potential against hARH1 (in words) (hARH1 [2]): only mild activity; inhibitory potential against ARH3 (in words) (LchARH3 [3]): inhibited
Nc1ncnc2c1ncn2C1OC(COP(=O)(O)OP(=O)(O)OCC2CC(O)CN2)C(O)C1O (centres unmarked) [ADP-HPM] | – | – | – | – | IC50 (hARH1 [1]): 164 µM; inhibitory potential against hARH1 (in words) (hARH1 [2]): only minor inhibitor potential; inhibitory potential against ARH3 (in words) (LchARH3 [3]): only minor inhibitor potential
Nc1ncnc2c1ncn2C1OC(COP(=O)(O)OP(=O)(O)OCC2OC(O)C(O)C2O)C(O)C1O (centres unmarked) [ADPr, ADP-ribose] | – | – | – | – | IC50 (hARH1 [1]): 228 µM; IC50 (hARH3 [4]): 3.2 µM; Ki (hARH3 [4]; TFMU-ADPr substrate): 1.08 ± 0.08 µM; inhibitory potential against hARH1 (in words) (hARH1 [2]): only mild activity; inhibitory potential against ARH3 (in words) (hARH3 [5]; serine MARylated histone H3 peptide as substrate, 1-1,000 μM compound): inhibited; inhibitory potential against ARH3 (in words) (LchARH3 [3]): inhibited
NC(=NCCC[C@H](N)C(=O)O)N[C@H]1O[C@H](COP(=O)(O)OP(=O)(O)OC[C@H]2O[C@@H](n3cnc4c(N)ncnc43)[C@H](O)[C@@H]2O)[C@@H](O)[C@H]1O [Arg-ADPr, arginine-ADP-ribose] | – | – | – | – | inhibition of hARH3 (in words) (hARH3 [6]): potent, cellular inhibitor of hARH3
[Ca+2] [CaCl2, Calcium chloride dehydrate] | 50.1 ± 0.08 | 3.4 ^d °C | 44.4 ± 0.08 | 4.2 ^d °C | IC50 (hARH3 [4]): 13.7 µM; Kd (hARH3 [7]; [9]): 266 ± 42 µM; Kd (LchARH3 [8]; [9]): 431 ± 68 µM; inhibition of ARH3 by calcium (in words) (LchARH3 [3]; de-MARylation assay in presence of 1 mM MgCl2 or 1 mM MnCl2, 1-2,000 μM CaCl2): inhibitor of magnesium-, but not manganese-, supplemented ARH3
O.O.O.O.O.O.[Cl-].[Cl-].[Co+2] [CoCl2, Cobalt(II) chloride hexahydrate] | 46.7 ± 0.09 | 0.0 °C | 39.6 ± 0.28 | −0.6 °C | –
O.O.O.O.O.O.[Cl][Cr]([Cl])[Cl] [CrCl3, Chromium(III) chloride hexahydrate] | 46.5 ± 0.04 | −0.3 °C | 40.1 ± 0.21 | −0.1 °C | –
[Cl][Cu][Cl] [CuCl2, Copper(II) chloride] | 40.5 ± 0.10 | −6.2 ^d °C | 39.0 ± 0.21 | −1.2 ^d °C | –
[Cl-].[Li+] [LiCl, Lithium chloride] | 46.6 ± 0.15 | −0.1 °C | 40.1 ± 0.16 | −0.1 °C | –
[Mg+2] [MgCl2, Magnesium chloride hexahydrate] | 46.7 ± 0.11 | 0.0 °C | 41.4 ± 0.17 | 1.3 ^d °C | Kd (hARH3 [7]; [9]): 5410 ± 322 µM; Kd (hARH3 [7]; [10]): ~5400 µM; support of hydrolysis of Ser-ADPr and PAR by metal (in words) (hARH3 [5]): able to support hydrolysis of Ser-ADPr and PAR; Kd (LchARH3 [8]; [9]): 2300 ± 257 µM; Kd (LchARH3 [8]; [10]): ~2300 µM; apparent concentration needed to restore activity (LchARH3 [3]; EDTA-treated LchARH3, 1-1000 µM MgCl2): ~50 µM; support of hydrolysis of Ser-ADPr and PAR by metal (in words) (LchARH3 [3]): able to support hydrolysis of Ser-ADPr and PAR
[Mn+2] [MnCl2, Manganese(II) chloride tetrahydrate] | 52.6 ± 0.09 | – | 51.5 ± 0.23 | – | Kd (hARH3 [7]): 208 ± 12 µM; support of hydrolysis of Ser-ADPr and PAR by metal (in words) (hARH3 [5]): able to support hydrolysis of Ser-ADPr and PAR; Kd (LchARH3 [8]): 175 ± 24 µM; support of hydrolysis of Ser-ADPr and PAR by metal (in words) (LchARH3 [3]): able to support hydrolysis of Ser-ADPr and PAR
O.O.O.O.O.O.[Cl][Ni][Cl] [NiCl2, Nickel(II) chloride hexahydrate] | 46.4 ± 0.09 | −0.3 °C | 40.7 ± 0.22 | 0.5 °C | –
[Cl-].[Cl-].[Zn+2] [ZnCl2, Zinc chloride] | 44.1 ± 0.07 | −2.6 ^d °C | 37.4 ± 0.25 | −2.8 ^d °C | –

Reference: PMC6309922, “(ADP-ribosyl)hydrolases: Structural Basis for Differential Substrate Recognition and Inhibition” (Cell Chemical Biology, 2018)
